#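 Each compound was tested at five concentrations against cells in 96-well plates for 48 hours. GI50 = concentration required for 50% inhibition of growth.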 Calls of active or inactive are those of the source. Rule as the data show it: active = GI50 up to about 1.1 µM and inactive = higher.
# Legend:
# Assay in all cases: NCI-60 cell line screen, 48 h
# BT-549 = system: BT-549
# MDA-N = system: MDA-N
# KM-20L2 = system: KM-20L2
# DMS-273 = system: DMS-273
# DMS-114 = system: DMS-114
# RXF 631 = system: RXF 631
# M19-MEL = system: M19-MEL
# HOP-18 = system: HOP-18
# XF498 = system: XF498
Structure (SMILES),GI50 (BT-549),GI50 (MDA-N),other results
COc1cc2c(cc1OCCCCN1CCN(CCCCOc3cc4c(cc3OC)C(=O)N3CCC[C@H]3C=N4)CC1)N=C[C@@H]1CCCN1C2=O,0.0202 µM (active),,
c1cc2ccc3cc4ncccc4c4ccc(c1)c2c34,,41.9 µM (inactive),
COc1ccc(/C=C(/C(=O)O)c2cc(OC)c(OC)c(OC)c2)cc1,,,GI50 (KM-20L2): 22.2 µM (inactive); GI50 (DMS-273): 31.6 µM (inactive); GI50 (DMS-114): 40.2 µM (inactive); GI50 (RXF 631): 46.8 µM (inactive); GI50 (M19-MEL): 79.8 µM (inactive)
NC(=O)C(c1ccccc1)N1CCOCC1 (stereo not given),,,GI50 (KM-20L2): > 100 µM (inactive); GI50 (DMS-273): > 100 µM (inactive); GI50 (DMS-114): > 100 µM (inactive); GI50 (M19-MEL): > 100 µM (inactive); GI50 (HOP-18): > 100 µM (inactive)
Cn1cnc([N+](=O)[O-])c1[Se]c1ncnc2nc[nH]c12,14.6 µM (inactive),,
CC1(C)C(=O)N(O)C(C)(C)N1O,> 10 µM (inactive),> 10 µM (inactive),
CCOC(=O)C(Cc1ccc(OC(=O)OC(C)(C)C)cc1)NC(=O)OC(C)(C)C (stereo not given),> 100 µM (inactive),> 100 µM (inactive),
CCOC(=O)c1ccc(-c2cc(C)[nH]n2)[nH]1,> 100 µM (inactive),> 100 µM (inactive),
C=CC(C)(C)c1c(OC)oc2ccc(OC)c(C)c2c1=O,90.2 µM (inactive),> 100 µM (inactive),
CC(C)(C)NCc1cc(C(C)(C)C)cc(-c2ccc(Cl)cc2)c1O,13.7 µM (inactive),16.1 µM (inactive),
CC(=O)NC1CONC1=O (stereo not given),> 100 µM (inactive),> 100 µM (inactive),
CC(=O)Oc1ccc2c(c1)c1c(OC(C)=O)c3ccccc3c(OC(C)=O)c1n2Cc1cccc(C)c1,35.1 µM (inactive),60.4 µM (inactive),
Cc1cc(S(=O)(=O)Nc2nc(N)n[nH]2)c(SCC(=O)O)cc1Cl,> 10 µM (inactive),> 10 µM (inactive),
O=C(OCC1OC2OC(c3ccccc3)(n3ccc4c([N+](=O)[O-])ccnc43)OC2C1OC(=O)c1ccccc1)c1ccccc1 (stereo not given),> 100 µM (inactive),> 100 µM (inactive),
COc1cc(C2c3cc4c(cc3OC3(OC)COC(=O)C23)OCO4)cc(OC)c1OC (stereo not given),1.7 µM (inactive),0.075 µM (active),
OCC1(CNc2cc(Cl)ncn2)CCC1,> 100 µM (inactive),> 100 µM (inactive),
CCC1([N+](=O)[O-])CN(N=O)C1,> 100 µM (inactive),> 100 µM (inactive),

Structure (SMILES),GI50 (BT-549),GI50 (MDA-N),other results
COC(=O)c1c(O)ccc2c1c1cc3ccccc3c(O)c1n2Cc1ccccc1Cl,32.8 µM (inactive),23.7 µM (inactive),
CN(CN1C(=O)C2Cc3ccccc3CN2C1=O)c1ccccn1 (stereo not given),,,GI50 (XF498): > 100 µM (inactive); GI50 (KM-20L2): > 100 µM (inactive); GI50 (DMS-273): > 100 µM (inactive); GI50 (DMS-114): > 100 µM (inactive); GI50 (M19-MEL): > 100 µM (inactive)
Cc1cccc(C)c1NC(=O)C1C(=O)N(c2c(C)cccc2C)C(=O)/C1=N\N (stereo not given),,,GI50 (KM-20L2): > 100 µM (inactive); GI50 (DMS-273): > 100 µM (inactive); GI50 (RXF 631): > 100 µM (inactive); GI50 (M19-MEL): > 100 µM (inactive); GI50 (HOP-18): > 100 µM (inactive)
CC(=O)O[C@@]1(C)[C@@H](C)C(=O)O[C@@H]2CCN3CC=C(COC(=O)[C@]1(C)O)[C@H]23,,,GI50 (KM-20L2): > 100 µM (inactive); GI50 (DMS-273): > 100 µM (inactive); GI50 (DMS-114): > 100 µM (inactive); GI50 (M19-MEL): > 100 µM (inactive)
COc1ccc(/C=C/C(=O)Oc2ccccc2OC)cc1,67 µM (inactive),36.4 µM (inactive),
Nc1c2ccccc2nc2c(C(=O)Nc3ccc(S(N)(=O)=O)cc3)cccc12,,,GI50 (XF498): 72.3 µM (inactive); GI50 (KM-20L2): > 100 µM (inactive); GI50 (DMS-273): 52.8 µM (inactive); GI50 (DMS-114): > 100 µM (inactive); GI50 (M19-MEL): 60 µM (inactive)
Cc1n[n+]([O-])c(C)cc1[N+](=O)[O-],24.7 µM (inactive),,
O=C(Nc1cc2cc([N+](=O)[O-])ccc2oc1=O)c1cccs1,69.2 µM (inactive),46.1 µM (inactive),
CCCC/C=C1/CCC(CN(C)C)C1=O (stereo not given),,2.42 µM (inactive),GI50 (KM-20L2): 2.54 µM (inactive); GI50 (DMS-273): 2.71 µM (inactive); GI50 (DMS-114): 1.29 µM (inactive); GI50 (RXF 631): 1.65 µM (inactive); GI50 (M19-MEL): 1.41 µM (inactive); GI50 (HOP-18): 2.22 µM (inactive)
O=C1CC(NCc2ccccc2)c2c(Cl)sc(Cl)c21 (stereo not given),31 µM (inactive),,
CC(=O)OC1=CC2=CC[C@H]3[C@@H]4CCC(=O)[C@@]4(C)CC(=O)[C@]3(S)[C@@]2(C)CC1,35 µM (inactive),31.7 µM (inactive),
CC(=O)OCC1OC(OC2C(COC(C)=O)OC(Sc3ccccc3C)C(OC(C)=O)C2OC(C)=O)C(OC(C)=O)C(OC(C)=O)C1OC(C)=O (stereo not given),,,GI50 (KM-20L2): > 100 µM (inactive); GI50 (DMS-273): > 100 µM (inactive); GI50 (DMS-114): > 100 µM (inactive); GI50 (M19-MEL): > 100 µM (inactive); GI50 (HOP-18): > 100 µM (inactive)
CCS(=O)(=O)c1c2cc(OC)ccc2nc2ccc(OC)cc12,,> 100 µM (inactive),
O=C1/C(=C/c2ccc(Cl)cc2)N=C(c2ccccc2)N1C1Nc2cc3c(cc2S1)NC(N1C(=O)/C(=C/c2ccc(Cl)cc2)N=C1c1ccccc1)S3 (stereo not given),,45.2 µM (inactive),
Nc1c(Br)cc(-c2cc(Br)c(N)c(Br)c2)cc1Br,,> 100 µM (inactive),
COC(=O)c1cc(/C=C\c2cc(OC)ccc2OC)ccc1OC,31.2 µM (inactive),17.7 µM (inactive),
Cc1ccc(S(=O)(=O)N2C3C=CC(C3)[C@@H]2C(Cl)(Cl)Cl)cc1 (stereo not given in full),16.4 µM (inactive),35 µM (inactive),

# — ChEMBL document CHEMBL1201862, “PubChem BioAssay data set” (2004)
